# Laboratory results taken from patent US12441695B2, “Substituted thiadiazinone dioxide and preparation method therefor, herbicidal composition, and application therefor” (Qingdao Kingagroot Chemical Compound Co., Ltd., priority 2019, dated 2025).
# Key:
# [1] = system: major crops (wheat, corn, rice, soybean, cotton, oilseed rape, millet, sorghum); assay: Experiment on weeding effect in post-emergence stage (crops); type: in vivo; conditions: 600 g/ha active ingredient plus water 450 kg/ha, 3 weeks after application; for corn plant damage level (growth control rate): crop corn; for rice plant damage level (growth control rate): crop rice; for soybean plant damage level (growth control rate): crop soybean
# Procedure, shortened: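 Weed and crop seeds were sown in soil-filled pots, covered with 0.5–2 cm soil and grown in a greenhouse. Plants were sprayed 2–3 weeks after sowing using a spray tower, with compound dissolved in acetone plus Tween 80 and diluted in water. Effect was expressed as fresh-weight growth control rate.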
# [2] = system: monocotyledonous and dicotyledonous weeds; assay: Experiment on weeding effect in post-emergence stage (weeds); type: in vivo; conditions: 600 g/ha active ingredient plus water 450 kg/ha, 3 weeks after application, fresh weight control rate; for Amaranthus retroflexus activity level (growth control rate): fomesafen-resistant Amaranthus retroflexus
# Procedure, shortened: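 Greenhouse pot-grown weeds and crops sprayed post-emergence 2–3 weeks after sowing with compound in acetone/Tween 80/water. Fresh-weight growth control scored after 3 weeks on a 0–5 scale (5: >85%, 0: <5%).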
Compound,corn plant damage level (growth control rate) [1],rice plant damage level (growth control rate) [1],soybean plant damage level (growth control rate) [1],Amaranthus retroflexus activity level (growth control rate) [2],Digitaria sanguinalis activity level (growth control rate) [2],Echinochloa crus-galli activity level (growth control rate) [2],Setaria viridis activity level (growth control rate) [2]
CCOC(=O)OC(C)N1c2c(Br)cc(F)cc2C(=O)N(C(C)C)S1(=O)=O (stereo not shown) [Compound 155],0 (Level 0: growth control rate is less than 5%),0 (Level 0: growth control rate is less than 5%),1 (Level 1: growth control rate is greater than or equal to 500 and less than 200%),5 (Level 5: growth control rate is above 85%),5 (Level 5: growth control rate is above 85%),5 (Level 5: growth control rate is above 85%),5 (Level 5: growth control rate is above 85%)
CCN1C(=O)c2cc(F)ccc2NS1(=O)=O [Compound 157],0 (Level 0: growth control rate is less than 5%),0 (Level 0: growth control rate is less than 5%),0 (Level 0: growth control rate is less than 5%),3 (Level 3: growth control rate is greater than or equal to 40% and less than 60%),,,
CCC(C)N1C(=O)c2cc(F)ccc2NS1(=O)=O (stereo not shown) [Compound 161],0 (Level 0: growth control rate is less than 5%),1 (Level 1: growth control rate is greater than or equal to 500 and less than 200%),0 (Level 0: growth control rate is less than 5%),,,,3 (Level 3: growth control rate is greater than or equal to 40% and less than 60%)
CCCC(C)N1C(=O)c2cc(F)ccc2NS1(=O)=O (stereo not shown) [Compound 163],,0 (Level 0: growth control rate is less than 5%),,3 (Level 3: growth control rate is greater than or equal to 40% and less than 60%),,,
CCN1c2ccc(F)cc2C(=O)N(C(C)C)S1(=O)=O [Compound 176],0 (Level 0: growth control rate is less than 5%),0 (Level 0: growth control rate is less than 5%),0 (Level 0: growth control rate is less than 5%),5 (Level 5: growth control rate is above 85%),,,
CCC(=O)N1c2ccc(F)cc2C(=O)N(C(C)C)S1(=O)=O [Compound 179],0 (Level 0: growth control rate is less than 5%),1 (Level 1: growth control rate is greater than or equal to 500 and less than 200%),1 (Level 1: growth control rate is greater than or equal to 500 and less than 200%),5 (Level 5: growth control rate is above 85%),,5 (Level 5: growth control rate is above 85%),3 (Level 3: growth control rate is greater than or equal to 40% and less than 60%)
CCCCC(=O)N1c2ccc(F)cc2C(=O)N(C(C)C)S1(=O)=O [Compound 181],0 (Level 0: growth control rate is less than 5%),0 (Level 0: growth control rate is less than 5%),0 (Level 0: growth control rate is less than 5%),5 (Level 5: growth control rate is above 85%),,,
CC(C)N1C(=O)c2cc(F)ccc2N(C(=O)C(C)(C)C)S1(=O)=O [Compound 182],0 (Level 0: growth control rate is less than 5%),0 (Level 0: growth control rate is less than 5%),0 (Level 0: growth control rate is less than 5%),3 (Level 3: growth control rate is greater than or equal to 40% and less than 60%),,,
C=CC(=O)N1c2ccc(F)cc2C(=O)N(C(C)C)S1(=O)=O [Compound 183],0 (Level 0: growth control rate is less than 5%),0 (Level 0: growth control rate is less than 5%),0 (Level 0: growth control rate is less than 5%),3 (Level 3: growth control rate is greater than or equal to 40% and less than 60%),,,
CC(C)N1C(=O)c2cc(F)ccc2N(C(=O)C2CC2)S1(=O)=O [Compound 184],1 (Level 1: growth control rate is greater than or equal to 500 and less than 200%),,,5 (Level 5: growth control rate is above 85%),3 (Level 3: growth control rate is greater than or equal to 40% and less than 60%),,3 (Level 3: growth control rate is greater than or equal to 40% and less than 60%)
COCC(=O)N1c2ccc(F)cc2C(=O)N(C(C)C)S1(=O)=O [Compound 185],0 (Level 0: growth control rate is less than 5%),0 (Level 0: growth control rate is less than 5%),0 (Level 0: growth control rate is less than 5%),3 (Level 3: growth control rate is greater than or equal to 40% and less than 60%),,,
CCCOC(=O)N1c2ccc(F)cc2C(=O)N(C(C)C)S1(=O)=O [Compound 186],0 (Level 0: growth control rate is less than 5%),0 (Level 0: growth control rate is less than 5%),0 (Level 0: growth control rate is less than 5%),4 (Level 4: growth control rate is greater than or equal to 60% and less than 85%),,,
CCCCCCCCSC(=O)N1c2ccc(F)cc2C(=O)N(C(C)C)S1(=O)=O [Compound 189],0 (Level 0: growth control rate is less than 5%),0 (Level 0: growth control rate is less than 5%),0 (Level 0: growth control rate is less than 5%),4 (Level 4: growth control rate is greater than or equal to 60% and less than 85%),,,
CC(C)N1C(=O)c2cc(F)ccc2N(C(=O)N(C)C)S1(=O)=O [Compound 190],0 (Level 0: growth control rate is less than 5%),0 (Level 0: growth control rate is less than 5%),0 (Level 0: growth control rate is less than 5%),3 (Level 3: growth control rate is greater than or equal to 40% and less than 60%),,,
CCS(=O)(=O)N1c2ccc(F)cc2C(=O)N(C(C)C)S1(=O)=O [Compound 195],0 (Level 0: growth control rate is less than 5%),0 (Level 0: growth control rate is less than 5%),0 (Level 0: growth control rate is less than 5%),3 (Level 3: growth control rate is greater than or equal to 40% and less than 60%),,3 (Level 3: growth control rate is greater than or equal to 40% and less than 60%),
CCCS(=O)(=O)N1c2ccc(F)cc2C(=O)N(C(C)C)S1(=O)=O [Compound 196],0 (Level 0: growth control rate is less than 5%),,0 (Level 0: growth control rate is less than 5%),5 (Level 5: growth control rate is above 85%),3 (Level 3: growth control rate is greater than or equal to 40% and less than 60%),5 (Level 5: growth control rate is above 85%),5 (Level 5: growth control rate is above 85%)
COc1ccc(CN2c3ccc(F)cc3C(=O)N(C(C)C)S2(=O)=O)cc1 [Compound 197],0 (Level 0: growth control rate is less than 5%),0 (Level 0: growth control rate is less than 5%),0 (Level 0: growth control rate is less than 5%),3 (Level 3: growth control rate is greater than or equal to 40% and less than 60%),,,
CC(C)N1C(=O)c2cc(F)cc(Br)c2N(C(=O)C2CC2)S1(=O)=O [Compound 199],0 (Level 0: growth control rate is less than 5%),1 (Level 1: growth control rate is greater than or equal to 500 and less than 200%),,5 (Level 5: growth control rate is above 85%),,,5 (Level 5: growth control rate is above 85%)
COCN1c2c(F)cc(F)cc2C(=O)N(C(C)C)S1(=O)=O [Compound 213],0 (Level 0: growth control rate is less than 5%),1 (Level 1: growth control rate is greater than or equal to 500 and less than 200%),0 (Level 0: growth control rate is less than 5%),3 (Level 3: growth control rate is greater than or equal to 40% and less than 60%),,,
